Species: Rattus norvegicus
Test: DrugMatrix - Regimen: Daily Repeat
Format: toxicity, organism-based, Sprague-Dawley
Design: regimen Daily Repeat, gender Male, age 6-8 weeks
Conditions: in vivo, po, route oral GAVAGE, vehicle .5 % CMC; for ABSOLUTE BASOPHIL / ABSOLUTE EOSINOPHIL / ABSOLUTE LYMPHOCYTE / ABSOLUTE MONOCYTE / ABSOLUTE SEGMENTED NEUTROPHIL / BASOPHIL / EOSINOPHIL / ERYTHROCYTE COUNT / HEMATOCRIT / HEMOGLOBIN / LEUKOCYTE COUNT / LYMPHOCYTE / MEAN CORPUSCULAR HEMOGLOBIN / MEAN CORPUSCULAR HEMOGLOBIN CONCENTRATION / MEAN CORPUSCULAR VOLUME / MONOCYTE / NEUTROPHIL / NUCLEATED RED BLOOD CELLS / PLATELET COUNT: tissue Blood; for ALANINE AMINOTRANSFERASE / ALBUMIN / ALKALINE PHOSPHATASE / ASPARTATE AMINOTRANSFERASE / BLOOD UREA NITROGEN / CARBON DIOXIDE / CHLORIDE / CHOLESTEROL / CREATINE PHOSPHOKINASE / CREATININE / GLUCOSE / LACTATE DEHYDROGENASE / LIPASE / PHOSPHORUS / POTASSIUM / SODIUM / TOTAL BILIRUBIN / TOTAL PROTEIN / URIC ACID: tissue Plasma
[1] = 0 mg/kg, 72 h, dose level Control, time 3 day
[2] = 0 mg/kg, 120 h, dose level Control, time 5 day
[3] = 100 mg/kg, 72 h, dose level Low, time 3 day

SMILES: COC1=C(OC)C(=O)C(CCCCCCCCCCO)=C(C)C1=O [IDEBENONE]
- ABSOLUTE BASOPHIL [1]: 0 CELLS/uL
- ABSOLUTE EOSINOPHIL [1]: 0 CELLS/uL
- ABSOLUTE LYMPHOCYTE [1]: 12191.17 CELLS/uL
- ABSOLUTE MONOCYTE [1]: 183.17 CELLS/uL
- ABSOLUTE SEGMENTED NEUTROPHIL [1]: 1192.33 CELLS/uL
- BASOPHIL [1]: 0%
- EOSINOPHIL [1]: 0%
- ERYTHROCYTE COUNT [1]: 5.51 x10E6/uL
- HEMATOCRIT [1]: 35.45%
- HEMOGLOBIN [1]: 13.82 G/DL
- LEUKOCYTE COUNT [1]: 13.57 x10E3/uL
- LYMPHOCYTE [1]: 89.83%
- MEAN CORPUSCULAR HEMOGLOBIN [1]: 25.1 pg
- MEAN CORPUSCULAR HEMOGLOBIN CONCENTRATION [1]: 38.98 G/DL
- MEAN CORPUSCULAR VOLUME [1]: 64.42 fL
- MONOCYTE [1]: 1.33%
- NEUTROPHIL [1]: 8.83%
- NUCLEATED RED BLOOD CELLS [1]: 0 /100WBC
- PLATELET COUNT [1]: 1118.17 x10E3/uL
- ALANINE AMINOTRANSFERASE [1]: 55 u/L
- ALBUMIN [1]: 4.15 G/DL
- ALKALINE PHOSPHATASE [1]: 449.5 u/L
- ASPARTATE AMINOTRANSFERASE [1]: 112.83 u/L
- BLOOD UREA NITROGEN [1]: 17.33 mg/dL
- CARBON DIOXIDE [1]: 29.5 mmol/L
- CHLORIDE [1]: 101 MEQ/L
- CHOLESTEROL [1]: 70 mg/dL
- CREATINE PHOSPHOKINASE [1]: 1325.83 u/L
- CREATININE [1]: 0.18 mg/dL
- GLUCOSE [1]: 171.5 mg/dL
- LACTATE DEHYDROGENASE [1]: 386 u/L
- LIPASE [1]: 10 u/L
- PHOSPHORUS [1]: 11.57 mg/dL
- POTASSIUM [1]: 6.21 MEQ/L
- SODIUM [1]: 141.65 MEQ/L
- TOTAL BILIRUBIN [1]: 0.15 mg/dL
- TOTAL PROTEIN [1]: 5.75 G/DL
- URIC ACID [1]: 1.28 mg/dL
- ABSOLUTE BASOPHIL [2]: 0 CELLS/uL
- ABSOLUTE EOSINOPHIL [2]: 138.17 CELLS/uL
- ABSOLUTE LYMPHOCYTE [2]: 13283.17 CELLS/uL
- ABSOLUTE MONOCYTE [2]: 303.83 CELLS/uL
- ABSOLUTE SEGMENTED NEUTROPHIL [2]: 1308.17 CELLS/uL
- BASOPHIL [2]: 0%
- EOSINOPHIL [2]: 1%
- ERYTHROCYTE COUNT [2]: 5.32 x10E6/uL
- HEMATOCRIT [2]: 33.8%
- HEMOGLOBIN [2]: 13.63 G/DL
- LEUKOCYTE COUNT [2]: 15.03 x10E3/uL
- LYMPHOCYTE [2]: 88.33%
- MEAN CORPUSCULAR HEMOGLOBIN [2]: 25.68 pg
- MEAN CORPUSCULAR HEMOGLOBIN CONCENTRATION [2]: 40.35 G/DL
- MEAN CORPUSCULAR VOLUME [2]: 63.67 fL
- MONOCYTE [2]: 1.83%
- NEUTROPHIL [2]: 8.83%
- NUCLEATED RED BLOOD CELLS [2]: 0 /100WBC
- PLATELET COUNT [2]: 1097.5 x10E3/uL
- ALANINE AMINOTRANSFERASE [2]: 54.5 u/L
- ALBUMIN [2]: 4.27 G/DL
- ALKALINE PHOSPHATASE [2]: 337 u/L
- ASPARTATE AMINOTRANSFERASE [2]: 94.67 u/L
- BLOOD UREA NITROGEN [2]: 17 mg/dL
- CARBON DIOXIDE [2]: 28.33 mmol/L
- CHLORIDE [2]: 101.5 MEQ/L
- CHOLESTEROL [2]: 71.33 mg/dL
- CREATINE PHOSPHOKINASE [2]: 628.17 u/L
- CREATININE [2]: 0.19 mg/dL
- GLUCOSE [2]: 177.83 mg/dL
- LACTATE DEHYDROGENASE [2]: 500.5 u/L
- LIPASE [2]: 9.5 u/L
- PHOSPHORUS [2]: 12.3 mg/dL
- POTASSIUM [2]: 5.63 MEQ/L
- SODIUM [2]: 143.03 MEQ/L
- TOTAL BILIRUBIN [2]: 0.2 mg/dL
- TOTAL PROTEIN [2]: 6.02 G/DL
- URIC ACID [2]: 1.5 mg/dL
- ABSOLUTE BASOPHIL [3]: 0 CELLS/uL
- ABSOLUTE EOSINOPHIL [3]: 86.67 CELLS/uL
- ABSOLUTE LYMPHOCYTE [3]: 16240.33 CELLS/uL
- ABSOLUTE MONOCYTE [3]: 104 CELLS/uL
- ABSOLUTE SEGMENTED NEUTROPHIL [3]: 1602.33 CELLS/uL
- BASOPHIL [3]: 0%
- EOSINOPHIL [3]: 0.67%
- ERYTHROCYTE COUNT [3]: 5.22 x10E6/uL
- HEMATOCRIT [3]: 32.37%
- HEMOGLOBIN [3]: 13.17 G/DL
- LEUKOCYTE COUNT [3]: 18.03 x10E3/uL
- LYMPHOCYTE [3]: 90.33%
- MEAN CORPUSCULAR HEMOGLOBIN [3]: 25.27 pg
- MEAN CORPUSCULAR HEMOGLOBIN CONCENTRATION [3]: 40.67 G/DL
- MEAN CORPUSCULAR VOLUME [3]: 62.07 fL
- MONOCYTE [3]: 0.67%
- NEUTROPHIL [3]: 8.33%
- NUCLEATED RED BLOOD CELLS [3]: 0 /100WBC
- PLATELET COUNT [3]: 1354 x10E3/uL
- ALANINE AMINOTRANSFERASE [3]: 57.67 u/L
- ALBUMIN [3]: 3.97 G/DL
- ALKALINE PHOSPHATASE [3]: 401 u/L
- ASPARTATE AMINOTRANSFERASE [3]: 105.67 u/L
- BLOOD UREA NITROGEN [3]: 17.67 mg/dL
- CARBON DIOXIDE [3]: 26.33 mmol/L
- CHLORIDE [3]: 101 MEQ/L
- CHOLESTEROL [3]: 67 mg/dL
- CREATINE PHOSPHOKINASE [3]: 961.67 u/L
- CREATININE [3]: 0.19 mg/dL
- GLUCOSE [3]: 227 mg/dL
- LACTATE DEHYDROGENASE [3]: 252 u/L
- LIPASE [3]: 9.67 u/L
- PHOSPHORUS [3]: 13.13 mg/dL
- POTASSIUM [3]: 6.02 MEQ/L
- SODIUM [3]: 142.43 MEQ/L
- TOTAL BILIRUBIN [3]: 0.2 mg/dL
- TOTAL PROTEIN [3]: 5.47 G/DL
- URIC ACID [3]: 1.67 mg/dL

From ChEMBL document CHEMBL3885881, “DrugMatrix”
